Measurements taken from patent US20170348269A1, “TREATMENT OF UREA CYCLE DISORDERS IN NEONATES AND INFANTS” (Horizon Therapeutics, LLC, priority 2016, published 2017).

Columns and labels:
Type in all cases: in vivo, human
[1] = test system: blood ammonia in pediatric patients with UCDs; assay: HPN-100-012 open-label fixed sequence switch-over study, blood ammonia control
Description: HPN-100-012, an open-label, fixed sequence, switch-over study of the safety, PK and efficacy of HPN-100 compared to NaPBA in patients with UCDs, with a 12-month safety extension part. […] After review of all the safety data by the DSMB, 8 additional subjects were enrolled in the study after the switch-over phase was completed. The primary efficacy endpoint was the 24-hour AUC (area under the curve) for blood ammonia on Day 1 compared with Day 10.

[2] = HPN-100-005 pharmacokinetics of HPN-100 and NaPBA in pediatric UCD patients; conditions: HPN-100-005 (N = 11)
Description: (§1) The pharmacokinetics of the short term studies can be summarized as follows. Mean exposure levels of HPN-100 metabolites PBA, PAA, and PAGN after doses of HPN-100 and NaPBA with meals (TID) in pediatric (29 days to 17 years of age) UCD patients in HPN-100-005 and HPN-100-012 studies are summarized below. The mean exposure to PBA, the parent metabolite, and mean exposure to PAGN, the terminal metabolite, show no systematic variation across age groups, while PAA exposure tended to decrease with increasing age, a finding consistent with those from population PK modeling which indicate that the rate of clearance/metabolism of PAA varies directly with body size. While systemic metabolite exposure, assessed as peak plasma concentration (Cmax) or AUC, is generally similar for HPN-100 and NaPBA, the minimum concentration (Cmin-ss) was higher—and/or percent-fluctuation less—for plasma PAGN, a finding consistent with slower gastrointestinal absorption of PBA when administered orally as HPN-100.

[3] = HPN-100-012 switch-over study, pharmacokinetics of HPN-100 and NaPBA in pediatric UCD patients; conditions: HPN-100-012 (N = 15), TID with meals, arithmetic mean
Experimental: HPN-100-012, an open-label, fixed sequence, switch-over study of the safety, PK and efficacy of HPN-100 compared to NaPBA in patients with UCDs, with a 12-month safety extension part. The switch-over part of the study and the 12-month safety extension are complete. The switch-over part was conducted at 7 U.S. centers and enrolled 15 pediatric UCD patients between 29 days and <6 year of age, all of whom completed the study. After review of all the safety data by the DSMB, 8 additional subjects were enrolled in the study after the switch-over phase was completed. The primary efficacy endpoint was the 24-hour AUC (area under the curve) for blood ammonia on Day 1 compared with Day 10.
as §1

[4] = pediatric UCD patients, TID with meals, arithmetic mean

For `O=C([O-])CCCc1ccccc1.[Na+]` [NaPBA, sodium phenylbutyrate], the “Mean blood ammonia at the 12-hour time point” value ([1]; HPN-100 Day 10, NaPBA Day 1, highest value for both treatments) was 41.03 µmol/L, the “Mean blood ammonia at the 24-hour time point” value ([1]; NaPBA Day 1, lowest value on NaPBA) was 34.66 µmol/L and the “Plasma PAA CLss/F” value [2, 4] was 34391 mL/min. The “Plasma PBA CLss/F” value [2, 4] was 145463 mL/min, the “Plasma PAA Cmin-ss” value ([2]; pediatric UCD patients, TID with meals, arithmetic mean (CV %)) was 674 ng/mL and the “U-PAGN Ae0-12” value ([2]; urinary PAGN excreted 0-12 h, arithmetic mean) was 7098020 µg. For the same compound, the “U-PAGN Ae12-24” value ([2]; urinary PAGN excreted 12-24 h, arithmetic mean) was 5414406 µg, the “U-PAGN Ae” value ([2]; urinary PAGN excreted, arithmetic mean) was 12512426 µg and the “Plasma PAA % Fluctuation” value [3] was 1289%. The “Plasma PAA AUC0-24” value [3] was 1458 µg·h/mL, the “Plasma PAA CLss/F” value [3] was 94249 mL/min and the “Plasma PAGN CLss/F” value [3] was 14360 mL/min. For the same compound, the “Plasma PBA CLss/F” value [3] was 112093 mL/min and the “Plasma PBA Cmin-ss” value [3] was 993 ng/mL.
